Data taken from patent US20220128542A1, “TREATMENT EFFICIENCY EVALUATION” (TX MEDIC AB, priority 2019, published 2022).
Marks after values point to notes of the source that are not given here.

Tested on: brain of rats subjected to severe traumatic brain injury (sTBI)
Assay: HPLC of purine-pyrimidine metabolites (energy state, oxidative/nitrosative stress) in brain after sTBI (Example 1)
Type: in vivo, rat
Conditions: sacrifice day 7
Procedure: They were divided into three groups:
1) n=6 animals subjected to sTBI, with drug administration after 30 minutes and sacrifice at 2 days post-TBI (Acute phase 1)
2) n=6 animals subjected to sTBI, with drug administration after 30 minutes and sacrifice at 7 days post-TBI (Acute phase 2).
3) n=6 animals subjected to sTBI, with drug administration after 3 days and sacrifice at 7 days post-TBI (Chronic phase).
The drug treatment was a subcutaneous injection of 0.5 ml of LMW-DS (15 mg/kg) and administered according to the aforementioned schematic protocol.
After the wet weight (w.w.) determination, tissue preparation was affected as previously disclosed (Tavazzi et al., Neurosurgery. 2005; 56: 582-589; Vagnozzi et al., Neurosurgery. 2007; 61: 379-388; Tavazzi et al., Neurosurgery. 2007; 61: 390-395; Amorini et al., J Cell Mol Med. 2017; 21: 530-542.). Briefly, whole brain homogenization was performed with 7 ml of ice-cold, nitrogen-saturated, precipitating solution composed by CH3CN+10 mM KH2PO4, pH 7.40, (3:1; v:v), and using an Ultra-Turrax set at 24,000 rpm/min (Janke & Kunkel, Staufen, Germany). After centrifugation at 20,690×g, for 10 min at 4° C., the clear supernatants were saved, pellets were supplemented with 3 ml of the precipitating solution and homogenized again as described above. A second centrifugation was performed (20,690×g, for 10 min at 4° C.), pellets were saved, supernatants combined with those previously obtained, extracted by vigorous agitation with a double volume of HPLC-grade CHCl3 and centrifuged as above. The upper aqueous phases containing water-soluble low-molecular weight compounds were collected, subjected to chloroform washings for two more times (this procedure allowed the removal of all the organic solvent and of any lipid soluble compound from the buffered tissue extracts), adjusted in volumes with 10 mM KH2PO4, pH 7.40, to have ultimately aqueous 10% tissue homogenates and saved at −80° C. until assayed.
Aliquots of each deproteinized tissue samples were filtered through a 0.45 μm HV Millipore filter and loaded (200 μl) onto a Hypersil C-18, 250×4.6 mm, 5 μm particle size column, provided with its own guard column (Thermo Fisher Scientific, Rodano, Milan, Italy) and connected to an HPLC apparatus consisting of a Surveyor System (Thermo Fisher Scientific, Rodano, Milan, Italy) with a highly sensitive diode array detector (equipped with a 5 cm light path flow cell) and set up between 200 and 300 nm wavelength. Data acquisition and analysis were performed by a PC using the ChromQuest® software package provided by the HPLC manufacturer.
Metabolites belonging to the purine-pyrimidine profiles (listed below) and related to tissue energy state, mitochondrial function and relative to oxidative-nitrosative stresses were separated, in a single chromatographic run, according to slight modifications of existing ion-pairing HPLC methods (Lazzarino et al., Anal Biochem. 2003; 322: 51-59; Tavazzi et al., Clin Biochem. 2005; 38: 997-1008). Assignment and calculation of the compounds of interest in chromatographic runs of tissue extracts were carried out at the proper wavelengths (206, 234 and 260 nm) by comparing retention times, absorption spectra and areas of peaks with those of peaks of chromatographic runs of freshly-prepared ultra-pure standard mixtures with known concentrations. […]

[1] = Acute phase 2: 15 mg/kg s.c. 30 min post-sTBI
[2] = Chronic phase: 15 mg/kg s.c. 3 days post-sTBI

For sodium salt of dextran sulfate [LMW-DS], the NO2 brain concentration [1] was 226.40 ± 30.95^b nmol/g (w.w.), the NO3 brain concentration [1] was 198.56 ± 25.93^e, i nmol/g (w.w.) and the UDP brain concentration [1] was 40.38 ± 8.50^a, i nmol/g (w.w.). The UDP-Gal brain concentration [1] was 145.14 ± 27.76 nmol/g (w.w.), the UDP-GalNac brain concentration [1] was 19.90 ± 3.12^a, e nmol/g (w.w.) and the UDP-Glc brain concentration [1] was 44.44 ± 7.59^j nmol/g (w.w.). The UDP-GlcNac brain concentration [1] was 130.65 ± 28.41^a nmol/g (w.w.), the UMP brain concentration [1] was 138.73 ± 32.01^b nmol/g (w.w.) and the UTP brain concentration [1] was 146.71 ± 32.68^e nmol/g (w.w.). The acetyl-CoA brain concentration [1] was 36.86 ± 4.11^e nmol/g (w.w.), the adenine brain concentration [1] was 58.16 ± 6.36^a, f nmol/g (w.w.) and the “ascorbic acid brain concentration” value [1] was 3512.58 ± 224.62^a, e nmol/g (w.w.). The creatinine brain concentration [1] was 37.27 ± 5.82^a, e, j nmol/g (w.w.), the cytidine brain concentration [1] was 16.18 ± 4.21^e nmol/g (w.w.) and the cytosine brain concentration [1] was 15.70 ± 4.10^f nmol/g (w.w.). The guanine brain concentration [1] was 4.73 ± 1.07 nmol/g (w.w.), the guanosine brain concentration [1] was 17.90 ± 3.24^j nmol/g (w.w.) and the hypoxanthine brain concentration [1] was 12.90 ± 2.58^a, j nmol/g (w.w.). For the same substance, the inosine brain concentration [1] was 85.52 ± 20.36^e nmol/g (w.w.), the malonyl-CoA brain concentration [1] was 11.29 ± 2.27^b nmol/g (w.w.) and the “orotic acid brain concentration” value [1] was 13.34 ± 3.65^a nmol/g (w.w.). The thymidine brain concentration [1] was 0.49 ± 0.20^f nmol/g (w.w.), the uracil brain concentration [1] was 19.40 ± 7.52^a, e nmol/g (w.w.) and the “uric acid brain concentration” value [1] was 19.17 ± 2.15^a, h, i nmol/g (w.w.). For the same substance, the uridine brain concentration [1] was 63.02 ± 9.66^b, e nmol/g (w.w.), the xanthine brain concentration [1] was 10.41 ± 2.11^f nmol/g (w.w.) and the β-pseudouridine brain concentration [1] was 13.26 ± 3.16^a, e, j nmol/g (w.w.). The ADO brain concentration [2] was 89.97 ± 12.98^a nmol/g (w.w.), the ADP brain concentration [2] was 315.53 ± 46.53^a nmol/g (w.w.) and the ADP-ribose brain concentration [2] was 173.94 ± 8.45^a nmol/g (w.w.). The AMP brain concentration [2] was 90.01 ± 21.24^a nmol/g (w.w.), the ATP brain concentration [2] was 1381.03 ± 212.64^a nmol/g (w.w.) and the CDP brain concentration [2] was 23.55 ± 6.45^a nmol/g (w.w.). The “CDP choline brain concentration” value [2] was 8.37 ± 2.19 nmol/g (w.w.), the CMP brain concentration [2] was 20.51 ± 3.73^a, f nmol/g (w.w.) and the CTP brain concentration [2] was 25.23 ± 2.93^a, f nmol/g (w.w.). For the same substance, the CoA-SH brain concentration [2] was 27.58 ± 6.24^f nmol/g (w.w.), the GDP brain concentration [2] was 173.05 ± 28.68^a, e nmol/g (w.w.) and the “GDP glucose brain concentration” value [2] was 43.85 ± 5.06^b nmol/g (w.w.). The GMP brain concentration [2] was 148.56 ± 31.21^a nmol/g (w.w.), the GSH brain concentration [2] was 2608.67 ± 358.07^a, e nmol/g (w.w.) and the GSSG brain concentration [2] was 231.08 ± 44.34^b, f nmol/g (w.w.). The GTP brain concentration [2] was 290.92 ± 34.68^a, f nmol/g (w.w.), the IMP brain concentration [2] was 99.29 ± 13.82^a nmol/g (w.w.) and the MDA brain concentration [2] was 11.62 ± 3.90^a, e nmol/g (w.w.). The NAA brain concentration [2] was 6375.36 ± 974.12^a, e nmol/g (w.w.), the NADH brain concentration [2] was 11.78 ± 3.32^e nmol/g (w.w.) and the NADPH brain concentration [2] was 7.34 ± 2.65^f nmol/g (w.w.). For the same substance, the “NADP^+ brain concentration” value [2] was 16.44 ± 2.66^a, f nmol/g (w.w.), the “NAD^+ brain concentration” value [2] was 301.13 ± 29.90^a nmol/g (w.w.) and the NO2 brain concentration [2] was 217.67 ± 55.04^a nmol/g (w.w.). The NO3 brain concentration [2] was 241.27 ± 18.84^e nmol/g (w.w.), the UDP brain concentration [2] was 57.40 ± 5.88^a, f nmol/g (w.w.) and the UDP-Gal brain concentration [2] was 122.29 ± 12.15 nmol/g (w.w.). The UDP-GalNac brain concentration [2] was 21.84 ± 2.80^a, e nmol/g (w.w.), the UDP-Glc brain concentration [2] was 35.79 ± 3.45^b nmol/g (w.w.) and the UDP-GlcNac brain concentration [2] was 129.42 ± 15.88^b nmol/g (w.w.). The UMP brain concentration [2] was 103.11 ± 29.79 nmol/g (w.w.), the UTP brain concentration [2] was 136.80 ± 33.25^f nmol/g (w.w.) and the acetyl-CoA brain concentration [2] was 35.68 ± 6.55^e nmol/g (w.w.). The adenine brain concentration [2] was 52.94 ± 8.59^a, f nmol/g (w.w.), the “ascorbic acid brain concentration” value [2] was 3375.03 ± 856.41^a, e nmol/g (w.w.) and the creatinine brain concentration [2] was 51.25 ± 10.17^a, f nmol/g (w.w.). For the same substance, the cytidine brain concentration [2] was 14.71 ± 2.83^e nmol/g (w.w.), the cytosine brain concentration [2] was 15.58 ± 2.50^b, f nmol/g (w.w.) and the guanine brain concentration [2] was 5.31 ± 1.04^b nmol/g (w.w.). The guanosine brain concentration [2] was 28.87 ± 7.60^a, f nmol/g (w.w.), the hypoxanthine brain concentration [2] was 17.97 ± 4.49^a nmol/g (w.w.) and the inosine brain concentration [2] was 105.81 ± 25.57^f nmol/g (w.w.). The malonyl-CoA brain concentration [2] was 10.00 ± 1.95^b nmol/g (w.w.), the “orotic acid brain concentration” value [2] was 12.05 ± 1.50^a nmol/g (w.w.) and the thymidine brain concentration [2] was 0.71 ± 0.11 nmol/g (w.w.). For the same substance, the uracil brain concentration [2] was 16.57 ± 2.99^a, f nmol/g (w.w.), the “uric acid brain concentration” value [2] was 27.77 ± 3.60^a nmol/g (w.w.) and the uridine brain concentration [2] was 63.28 ± 3.37^f nmol/g (w.w.). For the same substance, the xanthine brain concentration [2] was 9.35 ± 0.83^f nmol/g (w.w.) and the β-pseudouridine brain concentration [2] was 18.62 ± 2.80^a nmol/g (w.w.).
